Here are results for three molecules from paper PMC6001375, “CLERK is a novel receptor kinase required for sensing of root-active CLE peptides in Arabidopsis” (Development (Cambridge, England), 2018).

Where no end group is shown, it is not given here. [ ]: non-standard residue; d: D form. Hyp = O=C(O)[C@@H]1C[C@@H](O)CN1

Assay [1] concerns PHLOEM INTERCALATED WITH XYLEM (PXY). The conditions noted are these: ref Etchells and Turner, 2010; Fisher and Turner, 2007; Hirakawa et al., 2008; Morita et al., 2016; cited from earlier work. An excerpt:
(§1) The endogenous CLAVATA3/EMBRYO SURROUNDING REGION (CLE) peptides of plants are secreted as propeptides and processed to yield bioactive 12-14 amino acid long ligands ([Cock and McCormick, 2001]; [Ito et al., 2006]; [Kondo et al., 2006]). The Arabidopsis thaliana genome contains 32 CLE genes, which encode 27 distinct CLE peptides ([Goad et al., 2016]; [Ito et al., 2006]; [Strabala et al., 2006]). Exogenous application of chemically synthesized CLE peptides at nanomolar concentrations frequently suppresses Arabidopsis root growth in tissue culture ([Depuydt et al., 2013]; [Fiers et al., 2005]; [ ...

Assay [2] has as its system PXY ectodomain with NIK1/2/3 ectodomains. In words: Analytical size-exclusion chromatography, PXY + NIK1/2/3 ectodomains. The format is binding, Arabidopsis thaliana. The conditions noted are these: Fig. S3F; 50 µM peptide; pH 5.0. As to the method: (§2) Isolation of recombinant proteins and analytical gel filtrations were carried out as described previously ([Hazak et al., 2017]) with small adjustments. The coding sequences for BAM1-ECD (amino acids 20-637), BAM3-ECD (30-651), PXY-ECD (30-647), NIK1-ECD (32-248), NIK2-ECD (33-248), NIK3-ECD (26-238), CLERK-ECD (28-236) and At5G63710-ECD (51-224) were amplified from Arabidopsis thaliana cDNA using PfuX7 polymerase. All ECD-coding sequences were then cloned into a modified pFAST-BAC1 vector (Geneva Biotech) by GIBSON cloning, resulting in the addition of the azurocidin signal peptide sequence to the 5′-end, and of a 2×-STREP-9×HIS tag to the 3′-end of the ECD sequences. These plasmids, after being confirmed by sequencing, were transformed into Escherichia coli DH10MultiBac (Geneva Biotech) followed by the extraction of the resulting bacmids. Transfection of the bacmids into Spodoptera frugiperda Sf9 cells with Profectin (AB Vector) was carried out to produce and amplify the respective virus. Recombinant secreted expression of the proteins was carried out by addition of virus to Trichoplusia ni Tnao38 cells to reach a viral multiplicity of 1 and incubation of the cells for 3 days. […] Concentrations of the pure proteins were assessed by measuring their absorbance at 280 nm (NanoDrop Lite; Thermo Scientific) and subsequent correction with their respective extinction coefficient. […]

The test system of assay [3] is SERKs with PXY. The conditions noted are these: ref Hazak et al., 2017; Santiago et al., 2016; Zhang et al., 2016a,b; cited from earlier work. An excerpt: In numerous cases, ligand sensing by LRR-RKs requires interaction with co-receptor kinases ([Brandt and Hothorn, 2016]; [Hazak and Hardtke, 2016]; [Katsir et al., 2011]; [Li and Tax, 2013]). […] SERKs have also been implicated in PXY-mediated CLE41/44 signaling, although binding of PXY-CLE41/44 to ...

Assay [4] concerns PXY ectodomain with CLERK/At5g63710 ectodomains. Kind of assay: Analytical size-exclusion chromatography, PXY + CLERK/At5g63710 ectodomains. The format is binding, Arabidopsis thaliana. The conditions noted are these: 50 µM peptide. As to the method: as §2
In assay [5] the test system is CLAVATA 1 (CLV1). The conditions noted are these: ref Brand et al., 2000; Clark et al., 1995; Fletcher et al., 1999; cited from earlier work.
Excerpt: as §1

Assay [6] concerns the target T1, BARELY ANY MERISTEM 1 (BAM1) ectodomain (Arabidopsis thaliana, UniProt O49545 20-637).
T1 construct: BAM1, LRR receptor kinase of Arabidopsis thaliana, extracellular domain, amino acids 20-637; The azurocidin signal peptide was added at the N-terminus for secretion; also called BAM1-ECD
T1 sequence (looked up): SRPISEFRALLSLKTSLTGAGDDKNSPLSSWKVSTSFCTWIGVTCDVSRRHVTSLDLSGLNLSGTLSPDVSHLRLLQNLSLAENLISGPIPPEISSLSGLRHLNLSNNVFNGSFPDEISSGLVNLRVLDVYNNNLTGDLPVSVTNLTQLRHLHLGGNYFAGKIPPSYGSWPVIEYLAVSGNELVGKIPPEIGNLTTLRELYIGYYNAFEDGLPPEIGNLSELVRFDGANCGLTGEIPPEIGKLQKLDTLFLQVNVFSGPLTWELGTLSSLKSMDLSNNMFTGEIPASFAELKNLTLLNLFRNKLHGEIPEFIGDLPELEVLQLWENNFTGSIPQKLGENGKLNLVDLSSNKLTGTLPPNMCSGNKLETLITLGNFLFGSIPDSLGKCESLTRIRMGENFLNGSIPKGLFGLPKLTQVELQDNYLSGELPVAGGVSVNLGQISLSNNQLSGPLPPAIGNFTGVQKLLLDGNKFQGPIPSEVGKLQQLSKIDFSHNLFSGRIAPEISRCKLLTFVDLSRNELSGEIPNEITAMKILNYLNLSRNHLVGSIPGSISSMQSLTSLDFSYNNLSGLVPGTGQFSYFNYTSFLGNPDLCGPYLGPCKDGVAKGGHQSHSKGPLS
In words: ITC; Nano ITC, 25°C, 20 mM citrate (pH 5.0), 150 mM NaCl; peptide in the syringe, ectodomain in the cell: 400 µM CLE26 or CLE45 into 30 µM CLERK-ECD; 80 µM CLE9 into 13.8 µM BAM1-ECD. The conditions noted are these: both partners purified.

For assay [7], the target named is T2, BARELY ANY MERISTEM 1 (BAM1) ectodomain (Arabidopsis thaliana, UniProt O49545 20-637).
T2 chain: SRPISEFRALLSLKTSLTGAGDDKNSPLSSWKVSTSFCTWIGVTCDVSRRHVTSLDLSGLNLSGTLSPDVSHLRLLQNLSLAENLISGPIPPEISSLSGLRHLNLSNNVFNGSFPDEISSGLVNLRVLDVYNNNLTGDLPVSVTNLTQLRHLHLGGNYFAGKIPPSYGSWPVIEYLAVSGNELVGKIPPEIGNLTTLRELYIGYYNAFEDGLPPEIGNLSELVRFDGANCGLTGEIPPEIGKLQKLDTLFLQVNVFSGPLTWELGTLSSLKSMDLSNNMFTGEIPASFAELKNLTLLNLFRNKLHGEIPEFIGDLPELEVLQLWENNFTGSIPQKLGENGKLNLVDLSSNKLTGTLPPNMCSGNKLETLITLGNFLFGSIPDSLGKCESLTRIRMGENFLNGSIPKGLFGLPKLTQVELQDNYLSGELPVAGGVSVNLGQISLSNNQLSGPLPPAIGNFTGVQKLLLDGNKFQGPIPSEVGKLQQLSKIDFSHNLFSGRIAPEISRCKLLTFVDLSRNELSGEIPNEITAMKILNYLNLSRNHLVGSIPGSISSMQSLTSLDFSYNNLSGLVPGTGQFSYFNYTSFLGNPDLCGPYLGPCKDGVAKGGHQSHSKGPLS
Kind of assay: ITC.

For the molecule “HEVPSGPNPISN [CLE41, identical CLE41 and CLE44 peptides, perceived by PXY]”, the “Perception by PXY” value in assay [1] is “perceives”. Besides, the “Elution of PXY ectodomain with NIK1/2/3 ectodomains” value in assay [2] is listed as “elute as monomers”. Besides, the “Binding of PXY-CLE41/44 to SERKs” value in assay [3] is listed as “comparatively weak”. Moreover, the “Elution of PXY ectodomain with CLERK/At5g63710 ectodomains” value in assay [4] (Fig. S3C, pH 5.0) is recorded as “elute as monomers”. Moreover, the “Peptide-dependent binding of CLERK ectodomain to PXY ectodomain” value in assay [4] (gel filtration, 20 mM citrate (pH 5.0), 150 mM NaCl) is recorded as “Neither did CLERK ectodomain bind to the BAM1 ectodomain or the PXY ectodomain”.

For “CLV3: prototypical CLV3 peptide, directly bound by CLV1 to regulate stem cell homeostasis in shoot meristems (RTVPSGPDPLHHH; not fully specified; ends and bridges not checked; UniProt Q9XF04 70-82, looked up)”, the “Binding to CLV1” value in assay [5] was “directly binds”.

B1: CLE9 peptide (peptide)
peptide: RLV[Hyp]SG[Hyp]NPLHN
notes: CLE9 peptide of Arabidopsis thaliana, 12 residues; source: synthetic peptide (PSL GmbH)
Regarding B1, the binding result in assay [6] is listed as “binds”. Further, binding in assay [7] was put at a Kd of 12.7 nM.
